Activity calls are given as the source filed them. The rule behind the calls is not given here.
Experiments:
[1] = Selectivity index, ratio of IC50 for human MRC5 cells to IC50 for human U87 cells; assay type: toxicity; conditions: MRC5 cells versus U87 cells, read-out: Ratio IC50
SH-SY5Y = experiment: Inhibition of TrxR in human SH-SY5Y cell lysates at 5 uM using DTNB as substrate preincubated for 15 mins followed by substrate addition and measured for 20 mins by colorimetry relative to control; assay type: subcellular; conditions: time 35.0 min
[2] = target: T1, Thioredoxin reductase 1, cytoplasmic (Rattus norvegicus, UniProt O89049); experiment: Inhibition of recombinant rat TrxR1 using DTNB as substrate preincubated for 15 mins followed by substrate addition and measured for 20 mins by colorimetry
T1 sequence (O89049 whole entry): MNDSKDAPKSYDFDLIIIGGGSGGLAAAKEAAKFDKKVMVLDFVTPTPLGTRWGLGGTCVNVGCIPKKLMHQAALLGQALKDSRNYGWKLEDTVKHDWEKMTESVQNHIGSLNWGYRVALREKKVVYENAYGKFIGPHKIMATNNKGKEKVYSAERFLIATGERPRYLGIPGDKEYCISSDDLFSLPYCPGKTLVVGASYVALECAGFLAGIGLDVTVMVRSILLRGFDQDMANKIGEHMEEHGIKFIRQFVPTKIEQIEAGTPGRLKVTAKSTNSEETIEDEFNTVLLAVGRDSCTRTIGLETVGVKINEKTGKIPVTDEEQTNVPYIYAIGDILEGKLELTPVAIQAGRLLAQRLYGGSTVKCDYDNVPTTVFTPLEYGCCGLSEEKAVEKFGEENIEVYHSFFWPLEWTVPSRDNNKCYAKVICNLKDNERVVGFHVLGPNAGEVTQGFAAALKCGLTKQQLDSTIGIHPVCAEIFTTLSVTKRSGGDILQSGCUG

U-87 MG = experiment: Cytotoxicity against human U87 cells assessed as reduction in cell viability incubated for 72 hrs by MTT assay; assay type: functional, cell-based, U-87MG ATCC
[3] = Cytotoxicity against human U87-TxR cells assessed as reduction in cell viability incubated for 72 hrs by MTT assay; assay type: functional, cell-based
MRC5 = experiment: Cytotoxicity against human MRC5 cells assessed as reduction in cell viability incubated for 72 hrs by MTT assay; assay type: cell-based; conditions: MRC5, 72 h
[4] = Selectivity index, ratio of IC50 for human MRC5 cells to IC50 for human U87-TxR cells; assay type: toxicity; conditions: MRC5 cells versus U87-TxR cells, read-out: Ratio IC50
[5] = target: T2, Thioredoxin reductase 1, cytoplasmic (Homo sapiens) (UniProt Q16881); experiment: Inhibition of TrxR1 in human U87 cells assessed as increase in RONS level at 10 uM measured after 24 hrs by dihydrorhodamine 123 dye based flow cytometry; assay type: cell-based
T2 sequence (whole entry): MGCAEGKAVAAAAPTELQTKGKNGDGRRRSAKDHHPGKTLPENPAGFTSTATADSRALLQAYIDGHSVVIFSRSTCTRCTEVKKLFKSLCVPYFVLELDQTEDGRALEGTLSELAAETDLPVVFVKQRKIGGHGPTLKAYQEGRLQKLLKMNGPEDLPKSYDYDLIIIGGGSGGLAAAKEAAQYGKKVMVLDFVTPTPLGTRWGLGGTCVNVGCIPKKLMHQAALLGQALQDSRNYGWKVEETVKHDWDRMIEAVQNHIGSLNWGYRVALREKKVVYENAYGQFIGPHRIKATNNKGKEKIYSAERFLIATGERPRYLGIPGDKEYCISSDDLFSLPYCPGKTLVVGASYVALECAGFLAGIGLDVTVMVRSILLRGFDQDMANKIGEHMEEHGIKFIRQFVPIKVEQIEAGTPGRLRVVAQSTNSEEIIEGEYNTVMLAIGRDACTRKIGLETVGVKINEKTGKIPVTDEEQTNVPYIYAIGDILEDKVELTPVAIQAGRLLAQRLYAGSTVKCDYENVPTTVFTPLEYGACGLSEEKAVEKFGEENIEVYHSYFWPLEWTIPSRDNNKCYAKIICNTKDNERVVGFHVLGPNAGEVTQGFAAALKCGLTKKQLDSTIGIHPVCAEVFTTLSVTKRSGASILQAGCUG

[6] = target: T2, Thioredoxin reductase 1, cytoplasmic (Homo sapiens); experiment: Inhibition of TrxR1 in human U87-TxR cells assessed as increase in RONS level at 10 uM measured after 24 hrs by dihydrorhodamine 123 dye based flow cytometry; assay type: cell-based
[7] = target: T3, ATP-dependent translocase ABCB1 (Homo sapiens, UniProt P08183); experiment: Inhibition of P-gp in human U87-TxR cells assessed as increase in Rho123 accumulation at 5 uM measured after 30 mins by flow cytometry; assay type: cell-based; conditions: 0.5 h
[8] = target: T3, ATP-dependent translocase ABCB1; experiment: Inhibition of P-gp in human U87-TxR cells assessed as increase in Rho123 accumulation at 2.5 uM measured after 72 hrs by flow cytometry; assay type: cell-based
[9] = target: T3, ATP-dependent translocase ABCB1; experiment: Inhibition of P-gp in human U87-TxR cells assessed as increase in Rho123 accumulation at 50 nM measured after 30 mins by flow cytometry; assay type: cell-based; conditions: 0.5 h, 0.05 µM
[10] = target: T3, ATP-dependent translocase ABCB1; experiment: Inhibition of P-gp in human U87-TxR cells assessed as increase in Rho123 accumulation measured after 30 mins by flow cytometry; assay type: cell-based; conditions: 0.5 h

T3 sequence (P08183 whole entry): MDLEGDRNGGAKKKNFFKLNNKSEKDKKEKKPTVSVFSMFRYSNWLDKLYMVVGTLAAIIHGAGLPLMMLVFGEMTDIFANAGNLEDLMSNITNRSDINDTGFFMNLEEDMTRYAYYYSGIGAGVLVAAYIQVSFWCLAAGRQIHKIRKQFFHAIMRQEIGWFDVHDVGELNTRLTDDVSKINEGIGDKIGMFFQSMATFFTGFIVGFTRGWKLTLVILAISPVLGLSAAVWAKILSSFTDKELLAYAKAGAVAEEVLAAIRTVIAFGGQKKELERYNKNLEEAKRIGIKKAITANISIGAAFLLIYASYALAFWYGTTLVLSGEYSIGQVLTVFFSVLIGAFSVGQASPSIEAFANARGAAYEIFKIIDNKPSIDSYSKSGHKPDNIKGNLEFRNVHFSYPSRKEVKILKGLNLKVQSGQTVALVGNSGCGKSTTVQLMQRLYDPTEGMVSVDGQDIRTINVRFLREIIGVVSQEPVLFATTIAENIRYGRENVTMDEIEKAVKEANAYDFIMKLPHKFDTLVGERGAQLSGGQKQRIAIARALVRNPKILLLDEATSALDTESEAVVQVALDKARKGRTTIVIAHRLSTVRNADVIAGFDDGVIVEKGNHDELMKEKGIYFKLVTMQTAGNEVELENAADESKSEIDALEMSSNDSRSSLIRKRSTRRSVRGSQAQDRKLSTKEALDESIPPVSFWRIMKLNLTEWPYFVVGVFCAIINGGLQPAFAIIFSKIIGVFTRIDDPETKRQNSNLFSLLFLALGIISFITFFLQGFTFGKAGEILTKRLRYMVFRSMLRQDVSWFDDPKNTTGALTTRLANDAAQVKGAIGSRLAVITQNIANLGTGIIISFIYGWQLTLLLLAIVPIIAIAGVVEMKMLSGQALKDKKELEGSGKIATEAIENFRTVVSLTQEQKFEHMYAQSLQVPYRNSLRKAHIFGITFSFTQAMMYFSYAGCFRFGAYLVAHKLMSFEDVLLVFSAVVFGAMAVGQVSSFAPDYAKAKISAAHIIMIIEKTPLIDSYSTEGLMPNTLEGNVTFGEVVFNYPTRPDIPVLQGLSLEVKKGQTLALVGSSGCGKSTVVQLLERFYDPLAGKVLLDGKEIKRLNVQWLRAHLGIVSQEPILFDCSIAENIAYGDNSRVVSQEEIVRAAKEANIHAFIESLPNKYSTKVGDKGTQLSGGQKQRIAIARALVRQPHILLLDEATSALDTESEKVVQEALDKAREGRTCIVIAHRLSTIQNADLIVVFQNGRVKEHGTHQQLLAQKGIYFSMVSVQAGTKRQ

Q: Which selectivity ratio [1] does the source give for `Cc1cccc(C(C(=O)NC(C)(C)C)N(C)CCOC(=O)/C=C/C(=O)c2ccc(F)cc2)c1` (configuration not stated) here?
A: Its selectivity ratio is 1.6.

Q: What about the inhibition (SH-SY5Y) of the same molecule?
A: The inhibition was 33%.

Q: And the IC50 [2]?
A: Its IC50 is 1.5 µM.

Q: What about the IC50 (U-87 MG) of the same molecule?
A: The IC50 was 7.89 µM.

Q: And the IC50 [3]?
A: The IC50 was 8.41 µM.

Q: What about the IC50 (MRC5) of the same molecule?
A: The IC50 was 13.3 µM.

Q: And the selectivity ratio [4]?
A: Its selectivity ratio is 1.6.

Q: What about the inhibition [5] of the same molecule?
A: Its inhibition is “Active”.

Q: And the inhibition [6]?
A: Its inhibition is “Active”.

Q: And the “inhibition (INH)” value [7]?
A: The value was “Active”.

Q: And the “inhibition (INH)” value [8]?
A: Its value is “Not Active”.

Q: What does the source list for `Cc1cccc(C(C(=O)NC2CCCCC2)N(C)CCOC(=O)/C=C/C(=O)c2ccc(F)cc2)c1` (configuration not stated)?
A: selectivity ratio [1]: 1.9; inhibition (SH-SY5Y): 53%; IC50 [2]: 3.2 µM; IC50 (U-87 MG): 7.02 µM; IC50 [3]: 7.77 µM; IC50 (MRC5): 14.1 µM; selectivity ratio [4]: 1.9; inhibition [6]: Active; inhibition (INH) [7]: Active; inhibition (INH) [8]: Active

Q: Which selectivity ratio [1] does the source give for `Cc1ccc(C(=O)/C=C/C(=O)OCCN(C)C(C(=O)NC2CCCCC2)c2ccc(F)cc2)cc1` (configuration not stated) here?
A: The selectivity ratio was 1.6.

Q: And the inhibition (SH-SY5Y)?
A: Its inhibition is 68.8%.

Q: And the IC50 [2]?
A: The IC50 was 37 µM.

Q: And the IC50 (U-87 MG)?
A: The IC50 was 5.89 µM.

Q: And the IC50 [3]?
A: Its IC50 is 11.7 µM.

Q: And the IC50 (MRC5)?
A: Its IC50 is 14.2 µM.

Q: And the selectivity ratio [4]?
A: The selectivity ratio was 1.6.

Q: And the inhibition [5]?
A: The inhibition was “Active”.

Q: What about the inhibition [6] of the same molecule?
A: Its inhibition is “Active”.

Q: And the “inhibition (INH)” value [7]?
A: Its value is “Active”.

Q: And the “inhibition (INH)” value [8]?
A: The value was “Not Active”.

Q: What does the source list for `Cc1ccc(C(C(=O)NC(C)(C)C)N(C)CCOC(=O)/C=C/C(=O)c2ccc(F)cc2)cc1` (configuration not stated)?
A: selectivity ratio [1]: 2.2; inhibition (SH-SY5Y): 82.7%; IC50 [2]: 0.59 µM; IC50 (U-87 MG): 6.96 µM; IC50 [3]: 6.14 µM; IC50 (MRC5): 14.2 µM; selectivity ratio [4]: 2.2; inhibition [5]: Active; inhibition [6]: Active; inhibition (INH) [7]: Active; inhibition (INH) [8]: Not Active

Q: Which selectivity ratio [1] does the source give for `CN(CCOC(=O)/C=C/C(=O)c1ccc(F)cc1)C(C(=O)NC(C)(C)C)c1ccc(F)c(F)c1` (configuration not stated) here?
A: Its selectivity ratio is 2.4.

Q: And the inhibition (SH-SY5Y)?
A: Its inhibition is 84.6%.

Q: What about the IC50 [2] of the same molecule?
A: The IC50 was 0.19 µM.

Q: And the IC50 (U-87 MG)?
A: Its IC50 is 7.13 µM.

Q: And the IC50 [3]?
A: Its IC50 is 7.74 µM.

Q: What about the IC50 (MRC5) of the same molecule?
A: Its IC50 is 17.8 µM.

Q: And the selectivity ratio [4]?
A: Its selectivity ratio is 2.4.

Q: What about the inhibition [5] of the same molecule?
A: Its inhibition is “Active”.

Q: And the “inhibition (INH)” value [7]?
A: The value was “Active”.

Q: What about the “inhibition (INH)” value [8] of the same molecule?
A: Its value is “Not Active”.

Q: Which selectivity ratio [1] does the source give for `CN(CCOC(=O)/C=C/C(=O)c1ccc(F)cc1)C(C(=O)NC(C)(C)C)c1ccccc1F` (configuration not stated) here?
A: The selectivity ratio was 2.

Q: What about the inhibition (SH-SY5Y) of the same molecule?
A: The inhibition was 64%.

Q: And the IC50 [2]?
A: The IC50 was 5 µM.

Q: What about the IC50 (U-87 MG) of the same molecule?
A: Its IC50 is 8.34 µM.

Q: What about the IC50 [3] of the same molecule?
A: Its IC50 is 6.14 µM.

Q: What about the IC50 (MRC5) of the same molecule?
A: The IC50 was 14.8 µM.

Q: And the selectivity ratio [4]?
A: The selectivity ratio was 2.

Q: What about the inhibition [6] of the same molecule?
A: The inhibition was “Active”.

Q: What about the “inhibition (INH)” value [7] of the same molecule?
A: The value was “Active”.

Q: And the “inhibition (INH)” value [8]?
A: Its value is “Not Active”.

Q: What does the source list for `CCN(CCOC(=O)/C=C/C(=O)c1ccc(F)cc1)C(C(=O)NC(C)(C)C)c1cccc(C)c1` (configuration not stated)?
A: selectivity ratio [1]: 2; inhibition (SH-SY5Y): 50.2%; IC50 [2]: 3.37 µM; IC50 (U-87 MG): 7.07 µM; IC50 [3]: 6.05 µM; IC50 (MRC5): 13 µM; selectivity ratio [4]: 2; inhibition [5]: Active; inhibition [6]: Active; inhibition (INH) [7]: Active; inhibition (INH) [8]: Not Active

Q: With `COc1cc2c(cc1OC)CN(CCc1ccc(NC(=O)c3cc(OC)c(OC)cc3NC(=O)c3cnc4ccccc4c3)cc1)CC2` [TARIQUIDAR] as the molecule, how does the “inhibition (INH)” value [9] read?
A: The value was “Active”.

Q: With `CN(CCOC(=O)/C=C/C(=O)c1ccc(F)cc1)C(C(=O)NC(C)(C)C)c1ccc(F)cc1` (configuration not stated) as the molecule, how does the selectivity ratio [1] read?
A: Its selectivity ratio is 1.4.

Q: And the IC50 (U-87 MG)?
A: The IC50 was 8.9 µM.

Q: And the IC50 [3]?
A: The IC50 was 8.54 µM.

Q: And the IC50 (MRC5)?
A: The IC50 was 11.8 µM.

Q: And the selectivity ratio [4]?
A: Its selectivity ratio is 1.4.

Q: And the inhibition [6]?
A: Its inhibition is “Active”.

Q: What about the “inhibition (INH)” value [10] of the same molecule?
A: The value was “Dose-dependent effect”.
